# Source: paper PMC2667786 (Structure (London, England : 1993), 2009)
# Target: T1, AvPCP (Trichormus variabilis, UniProt Q3M7N3)
# T1 sequence (Q3M7N3 1-234): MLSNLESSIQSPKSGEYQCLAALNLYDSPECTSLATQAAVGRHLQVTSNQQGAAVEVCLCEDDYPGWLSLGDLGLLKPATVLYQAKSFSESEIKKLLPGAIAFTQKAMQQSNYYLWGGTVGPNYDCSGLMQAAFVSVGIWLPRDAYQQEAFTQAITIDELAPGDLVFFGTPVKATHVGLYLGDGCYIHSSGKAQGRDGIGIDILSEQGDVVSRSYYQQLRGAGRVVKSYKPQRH
# Assay: hydrolysis of murein tripeptide to Ala-γ-D-Glu and DAP
# Assay type: biochemical
# Conditions: assay details only in Supplemental Data
smiles,measurement,value
C[C@H](N)C(=O)N[C@H](CCC(=O)N[C@@H](CCC[C@@H](N)C(=O)O)C(=O)O)C(=O)O [Ala-γ-D-Glu-DAP],hydrolysis of murein tripeptide to Ala-γ-D-Glu and DAP,"AvPCP can, indeed, hydrolyze Ala-γ-D-Glu-DAP to Ala-γ-D-Glu and DAP"
